Tests used:
[1] = tested on: ppENK expression in pancreatic cancer cell lines PL3, CAPAN2, MiaPaca2 and Panc1; experiment: RT-PCR analysis of ppENK expression after 5Aza-dC treatment; assay type: cell-based, human; conditions: 4 methylated cell lines (PL3, CAPAN2, MiaPaca2, Panc1), 5Aza-dC at a final concentration of 1 μM for 5 days, coamplified with GAPDH
Procedure: (§1) Five pancreatic cancer cell lines (PL3, PL8, CAPAN2, Panc1, and MiaPaca2) and four normal pancreata were used for RT-PCR analysis. The cell lines were treated with demethylating agent 5Aza-dC (Sigma Chemical Co.) at a final concentration of 1 μM for 5 days. Total RNA was prepared using TRIzol (Life Technologies, Inc.), reverse-transcribed and amplified. As a control for cDNA integrity, glyceraldehyde-3-phosphate dehydrogenase gene (GAPDH) was also amplified. Primer sequences for RT-PCR are listed in Table 3 and are available at http://pathology2.jhu.edu/pancreas/prim0425.htm, which website is incorporated herein by reference.
(§2) Partial methylation (˜50%) of the 5′ CpG island of Cyclin G in PL8 (FIG. 4C) was associated with decreased expression of Cyclin G by RT-PCR. The 5′ CpG island of Cyclin G was not methylated in a panel of normal pancreata. Cyclin G was expressed in 4 normal pancreata by RT-PCFR. […] Thus, hypermethylation of the 5′ CpG islands of Cyclin G and ppENK is coincides with decreased expression in pancreatic cancers.

[2] = tested on: Cyclin G expression in pancreatic cancer cell line PL8; experiment: RT-PCR analysis of Cyclin G expression after 5Aza-dC treatment; assay type: cell-based, human; conditions: methylated cell line PL8, 5Aza-dC at a final concentration of 1 μM for 5 days, coamplified with GAPDH
Procedure: as §1, §2

[3] = listed as 5-aza-2′-deoxycytidine

SMILES: Nc1ncn([C@H]2C[C@H](O)[C@@H](CO)O2)c(=O)n1 [5Aza-dC, 5-aza-2′-deoxycytidine]
- ppENK expression by RT-PCR [1]: restored ppENK expression in all 4 cell lines
- ppENK expression by RT-PCR [1, 3]: reversible
- ppENK expression by RT-PCR ([1]; listed as 5 Aza-dC): restored the ppENK expression
- Cyclin G expression by RT-PCR [2]: restored the expression of Cyclin G
- Cyclin G expression by RT-PCR [2, 3]: reversible
- Cyclin G expression by RT-PCR ([2]; listed as 5 Aza-dC): increased Cyclin G expression
